Reference: patent US6468973B1, “Method in the treatment of schizophrenia” (priority 1998, dated 2002)

Tested on: patient with a severe form of schizophrenia
Assay: Case study: treatment of a patient with a severe form of schizophrenia with a GnRH-analogue
Assay type: in vivo, human
Procedure: 3. […] The patient had previously been treated with various dopamine receptor antagonists without any major improvement.
The GnRH-analogue triptorelin is available in a pharmaceutical preparation (Decapeptyl® Depot). In the use of this preparation, an injection is administered containing triptorelin embonate in a dose corresponding to 3.75 mg triptorelin. Injections with this dose are given intramuscularly. They should be repeated every fourth week from the first injection.
A detailed case study of the treatment of a patient with a severe form of schizophrenia is disclosed in the following, as supporting evidence of the effect of the method.
They had previously by other psychiatrists been given traditional treatment, for several years, without any major improvement in the symptoms of schizophrenia.
The situation when the patient came to the clinic was that they had sickness pension since more than twenty years. Their contacts with other persons were highly restraint. […] The clinical diagnosis was that they suffered from a very serious form of schizophrenia. They had no signs of any other mental illness or personality disorder. Thus, it was a clearly defined case of schizophrenia.
Certain symptoms of androgenic hyperactivity such as a male pattern baldness and frequent sexual delusions were also found at the initial examination.
An endocrinological investigation was performed, based upon their symptoms of androgenic hyperactivity. This disclosed a low blood concentration of free testosterone. Since the patient had symptoms of androgenic hyperactivity this laboratory finding could, however, not be a symptom of a low androgenic activity. Instead, the interpretation of this laboratory finding was that it was a sign of a compensatory reduction in the synthesis and release of testosterone occurring as a consequence of an increased androgenic activity in the brain.
During long periods of time the patient had been treated with the drugs which presently are considered to have the best effect against schizophrenia.
In order to overcome the sexual delusions, treatment with the long-acting GnRH-analogue triptorelin (Decapeptyl® Depot) was given every fourth week as deep intramuscular depot injections with a dose corresponding to 1.75 mg triptorelin in each injection. Initially, they were also treated with flutamid in order to prevent a transient increase in androgenic activity.
It is obvious that the dramatic improvement of the patient was caused by the treatment with a GnRH-analogue.

[1] = same patient and regimen, after another three months (five months in total)

CC(C)C[C@H](NC(=O)[C@@H](Cc1c[nH]c2ccccc12)NC(=O)[C@H](Cc1ccc(O)cc1)NC(=O)[C@H](CO)NC(=O)[C@H](Cc1c[nH]c2ccccc12)NC(=O)[C@H](Cc1c[nH]cn1)NC(=O)[C@@H]1CCC(=O)N1)C(=O)N[C@@H](CCCNC(=N)N)C(=O)N1CCC[C@H]1C(=O)NCC(N)=O [triptorelin]
clinical improvement of schizophrenia (one patient, very severe schizophrenia, after six months of treatment, previously dopamine receptor antagonists without major improvement): dramatically improved | patient's condition (schizophrenia symptoms) (person, Decapeptyl Depot i.m. every fourth week, dose corresponding to 1.75 mg triptorelin, initially with flutamid, after two months treatment): began to feel better | delusions [1]: markedly reduced | hallucinations [1]: all hallucinations had disappeared | patient's condition (schizophrenia symptoms) [1]: dramatically better
